Measured values: patent US20240279236A1, “COMPOUNDS AND METHODS OF TREATING TUBERCULOSIS” (Fimbrion Therapeutics, Inc., priority 2021, published 2024)

tested on: WT Mtb Erdman strain; experiment: Microplate Alamar Blue Assay (MABA), Mtb growth inhibition; type: cell-based, Mycobacterium tuberculosis; conditions: Mycobacterium tuberculosis, ERDMAN, 168 h, Middlebrook 7H9 media, 7 days at 37° C. in 5% CO2

Going from `CSc1nc(NCCCc2ccc(-c3cnc(F)cn3)cc2)c2nc(C)sc2n1` [Example 424, N-(3-[4-(5-fluoropyrazin-2-yl)phenyl]propyl)-2-methyl-5-(methylsulfanyl)-[1,3]thiazolo[5,4-d]pyrimidin-7-amine] to `Cc1nc2c(NCCCc3ccc(-c4cnc(F)cn4)cc3)nc(-c3ncon3)nc2s1` [Example 457, N-(3-(4-(5-fluoropyrazin-2-yl)phenyl)propyl)-2-methyl-5-(1,2,4-oxadiazol-3-yl)thiazolo[5,4-d]pyrimidin-7-amine], the IC50 rises from 41 nM to greater than 1000 nM. The first is the more potent here.

`CSc1nc(NCCCc2ccc(-c3ccc(Cl)cc3)cc2)c2cc(C)sc2n1` [Example 425, N-(3-(4′-chloro-[1,1′-biphenyl]-4-yl)propyl)-6-methyl-2-(methylthio)thieno[2,3-d]pyrimidin-4-amine] and `CSc1nc(NCCCc2ccc(-c3ccc(C#N)cc3)cc2)c2cc(C)sc2n1` [Example 432, 4′-(3-((6-methyl-2-(methylthio)thieno[2,3-d]pyrimidin-4-yl)amino)propyl)-[1,1′-biphenyl]-4-carbonitrile] are within 1.5-fold of each other in IC50: 17 nM for the first, 14 nM for the second.

Compared with `Cc1cc2c(NCCCc3ccc(-c4ccc(OC(F)(F)F)cc4)cc3)nc(-c3ccncn3)nc2s1` [Example 426, 6-methyl-2-(pyrimidin-4-yl)-N-(3-(4′-(trifluoromethoxy)-[1,1′-biphenyl]-4-yl)propyl)thieno[2,3-d]pyrimidin-4-amine], `Cc1cc2c(NCCCc3ccc(-c4ccc(OC(F)(F)F)cc4)cc3)nc(-c3cn(C)cn3)nc2s1` [Example 443, 6-methyl-2-(1-methyl-1H-imidazol-4-yl)-N-(3-(4′-(trifluoromethoxy)-[1,1′-biphenyl]-4-yl)propyl)thieno[2,3-d]pyrimidin-4-amine] is 3.9-fold higher in IC50: 76 nM for the first, 300 nM for the second. The first is the more potent here.

First: Cc1cc2c(NCCCc3ccc(-c4ccc(C#N)cc4)cc3)nc(-c3ccoc3)nc2s1 [Example 427, 4′-(3-((2-(furan-3-yl)-6-methylthieno[2,3-d]pyrimidin-4-yl)amino)propyl)-[1,1′-biphenyl]-4-carbonitrile]
Second: Cc1cc2c(NCCCc3ccc(-c4ccc(Cl)cc4)cc3)nc(-c3ccoc3)nc2s1 [Example 434, N-(3-(4′-chloro-[1,1′-biphenyl]-4-yl)propyl)-2-(furan-3-yl)-6-methylthieno[2,3-d]pyrimidin-4-amine]
The IC50 of the first is 1.6-fold higher: 16 nM for the first, 10 nM for the second. The second is the more potent here.

Going from `Cc1cc2c(NCCCc3ccc(-c4ccc(C(F)(F)F)nc4)cc3)nc(-c3ccoc3)nc2s1` [Example 428, 2-(furan-3-yl)-6-methyl-N-(3-(4-(6-(trifluoromethyl)pyridin-3-yl)phenyl)propyl)thieno[2,3-d]pyrimidin-4-amine] to `Cc1cc2c(NCCCc3ccc(-c4ccc(C(F)(F)F)nc4)cc3)nc(Cl)nc2s1` [Example 438, 2-chloro-6-methyl-N-(3-(4-(6-(trifluoromethyl)pyridin-3-yl)phenyl)propyl)thieno[2,3-d]pyrimidin-4-amine], the IC50 rises from 20 nM to 140 nM (7-fold).

Going from `Cc1cc2c(NCCCc3ccc(-c4ccc(C5CC5)cc4)cc3)nc(-c3ccoc3)nc2s1` [Example 429, N-(3-(4′-cyclopropyl-[1,1′-biphenyl]-4-yl)propyl)-2-(furan-3-yl)-6-methylthieno[2,3-d]pyrimidin-4-amine] to `Cc1cc2c(NCCCc3ccc(-c4ccc(C5CC5)cc4)cc3)nc(Cl)nc2s1` [Example 437, 2-chloro-N-(3-(4′-cyclopropyl-[1,1′-biphenyl]-4-yl)propyl)-6-methylthieno[2,3-d]pyrimidin-4-amine], the IC50 rises from 20 nM to 85 nM (4.2-fold). The first is the more potent here.

First: CSc1nc(NCCCc2ccc(-c3ccc(C4CC4)cc3)cc2)c2cc(C)sc2n1 [Example 430, N-(3-(4′-cyclopropyl-[1,1′-biphenyl]-4-yl)propyl)-6-methyl-2-(methylthio)thieno[2,3-d]pyrimidin-4-amine]
Second: Cc1cc2c(NCCCc3ccc(-c4ccc(OC(F)(F)F)cc4)cc3)nc(C3CC3)nc2s1 [Example 452]
The IC50 of the first is 4.2-fold lower: 18 nM for the first, 76 nM for the second. The first is the more potent here.

Going from `CSc1nc(NCCCc2ccc(-c3ccc(C(F)(F)F)nc3)cc2)c2cc(C)sc2n1` [Example 431, 6-methyl-2-(methylthio)-N-(3-(4-(6-(trifluoromethyl)pyridin-3-yl)phenyl)propyl)thieno[2,3-d]pyrimidin-4-amine] to `CCSc1nc(NCCCc2ccc(-c3ccc(OC(F)(F)F)cc3)cc2)c2cc(C)sc2n1` [Example 448, 2-(ethylthio)-6-methyl-N-(3-(4′-(trifluoromethoxy)-[1,1′-biphenyl]-4-yl)propyl)thieno[2,3-d]pyrimidin-4-amine], the IC50 rises from 20 nM to 44 nM (2.2-fold). The first is the more potent here.

Going from `Cc1cc2c(NCCCc3ccc(-c4ccc(OC(F)(F)F)cc4)cc3)nc(Cl)nc2s1` [Example 433, 2-chloro-6-methyl-N-(3-(4′-(trifluoromethoxy)-[1,1′-biphenyl]-4-yl)propyl)thieno[2,3-d]pyrimidin-4-amine] to `Cc1nc(NCCCc2ccc(-c3ccc(OC(F)(F)F)cc3)cc2)c2cc(C)sc2n1` [Example 445, 2,6-dimethyl-N-(3-(4′-(trifluoromethoxy)-[1,1′-biphenyl]-4-yl)propyl)thieno[2,3-d]pyrimidin-4-amine], the IC50 rises from 54 nM to 160 nM (3-fold).

Compared with `Cc1cc2c(NCCCc3ccc(-c4ccc(Cl)cc4)cc3)nc(Cl)nc2s1` [Example 435, 2-chloro-N-(3-(4′-chloro-[1,1′-biphenyl]-4-yl)propyl)-6-methylthieno[2,3-d]pyrimidin-4-amine], `Cc1cc2c(NCCCc3ccc(-c4ccc(C#N)cc4)cc3)nc(Cl)nc2s1` [Example 439, 4′-(3-((2-chloro-6-methylthieno[2,3-d]pyrimidin-4-yl)amino)propyl)-[1,1′-biphenyl]-4-carbonitrile] is 3.1-fold higher in IC50: 30 nM for the first, 93 nM for the second.

Compared with `Cc1cc2c(NCCCc3ccc(-c4ccc(Cl)cc4)cc3)nc(-c3ccc(F)cc3)nc2s1` [Example 436, N-(3-(4′-chloro-[1,1′-biphenyl]-4-yl)propyl)-2-(4-fluorophenyl)-6-methylthieno[2,3-d]pyrimidin-4-amine], `Cc1cc2c(NCCCc3ccc(-c4ccc(OC(F)(F)F)cc4)cc3)nc(-c3ccn(C)c3)nc2s1` [Example 441, 6-methyl-2-(1-methyl-1H-pyrrol-3-yl)-N-(3-(4′-(trifluoromethoxy)-[1,1′-biphenyl]-4-yl)propyl)thieno[2,3-d]pyrimidin-4-amine] is 4.5-fold lower in IC50: 220 nM for the first, 49 nM for the second.

`Cc1cc2c(NCCCc3ccc(-c4ccc(OC(F)(F)F)cc4)cc3)nc(-c3cccn3C)nc2s1` [Example 440, 6-methyl-2-(1-methyl-1H-pyrrol-2-yl)-N-(3-(4′-(trifluoromethoxy)-[1,1′-biphenyl]-4-yl)propyl)thieno[2,3-d]pyrimidin-4-amine] and `Cc1cc2c(NCCCc3ccc(-c4ccc(OC(F)(F)F)cc4)cc3)nc(-c3cncn3C)nc2s1` [Example 444, 6-methyl-2-(1-methyl-1H-imidazol-5-yl)-N-(3-(4′-(trifluoromethoxy)-[1,1′-biphenyl]-4-yl)propyl)thieno[2,3-d]pyrimidin-4-amine] are within 1.5-fold of each other in IC50: 8100 nM for the first, 5500 nM for the second.

First: Cc1cc2c(NCCCc3ccc(-c4ccc(OC(F)(F)F)cc4)cc3)nc(-c3cnc[nH]3)nc2s1 [Example 442, 2-(1H-imidazol-5-yl)-6-methyl-N-(3-(4′-(trifluoromethoxy)-[1,1′-biphenyl]-4-yl)propyl)thieno[2,3-d]pyrimidin-4-amine]
Second: Cc1cc2c(NCCCc3ccc(-c4ccc(OC(F)(F)F)cc4)cc3)nc(-c3cn[nH]c3)nc2s1 [Example 454, 6-methyl-2-(1H-pyrazol-4-yl)-N-(3-(4′-(trifluoromethoxy)-[1,1′-biphenyl]-4-yl)propyl)thieno[2,3-d]pyrimidin-4-amine]
The IC50 of the first is lower: 230 nM for the first, greater than 1000 nM for the second. The first is the more potent here.

Compared with `Cc1cc2c(NCCCc3ccc(-c4ccc(OC(F)(F)F)cc4)cc3)nc(-c3ncon3)nc2s1` [Example 446, 6-methyl-2-(1,2,4-oxadiazol-3-yl)-N-(3-(4′-(trifluoromethoxy)-[1,1′-biphenyl]-4-yl)propyl)thieno[2,3-d]pyrimidin-4-amine], `Cc1cc2c(NCCCc3ccc(-c4ccc(OC(F)(F)F)cc4)cc3)nc(-c3c(C)noc3C)nc2s1` [Example 449, 2-(3,5-dimethylisoxazol-4-yl)-6-methyl-N-(3-(4′-(trifluoromethoxy)-[1,1′-biphenyl]-4-yl)propyl)thieno[2,3-d]pyrimidin-4-amine] is higher in IC50: 96 nM for the first, greater than 1000 nM for the second. The first is the more potent here.

Going from `Cc1cc2c(NCCCc3ccc(-c4ccc(OC(F)(F)F)cc4)cc3)nc(-c3cnn(C)c3)nc2s1` [Example 447, 6-methyl-2-(1-methyl-1H-pyrazol-4-yl)-N-(3-(4′-(trifluoromethoxy)-[1,1′-biphenyl]-4-yl)propyl)thieno[2,3-d]pyrimidin-4-amine] to `Cc1cc2c(NCCCc3ccc(-c4ccc(OC(F)(F)F)cc4)cc3)nc(-c3ccn(C)n3)nc2s1` [Example 450, 6-methyl-2-(1-methyl-1H-pyrazol-3-yl)-N-(3-(4′-(trifluoromethoxy)-[1,1′-biphenyl]-4-yl)propyl)thieno[2,3-d]pyrimidin-4-amine], the IC50 rises from 57 nM to 490 nM (8.6-fold). The first is the more potent here.

Compared with `Cc1cc2c(NCCCc3ccc(-c4ccc(OC(F)(F)F)cc4)cc3)nc(-n3ccnc3)nc2s1` [Example 451, 2-(1H-imidazol-1-yl)-6-methyl-N-(3-(4′-(trifluoromethoxy)-[1,1′-biphenyl]-4-yl)propyl)thieno[2,3-d]pyrimidin-4-amine], `Cc1cc2c(NCCCc3ccc(-c4ccc(OC(F)(F)F)cc4)cc3)nc(C(C)C)nc2s1` [Example 455, 2-isopropyl-6-methyl-N-(3-(4′-(trifluoromethoxy)-[1,1′-biphenyl]-4-yl)propyl)thieno[2,3-d]pyrimidin-4-amine] is 32-fold lower in IC50: 1800 nM for the first, 56 nM for the second. The second is the more potent here.

Going from `Cc1cc2c(NCCCc3ccc(-c4ccc(OC(F)(F)F)cc4)cc3)nc(C3CCC3)nc2s1` [Example 453, 2-cyclobutyl-6-methyl-N-(3-(4′-(trifluoromethoxy)-[1,1′-biphenyl]-4-yl)propyl)thieno[2,3-d]pyrimidin-4-amine] to `Cc1cc2c(NCCCc3ccc(-c4ccc(OC(F)(F)F)cc4)cc3)nc(-c3ccoc3C)nc2s1` [Example 456, 6-methyl-2-(2-methylfuran-3-yl)-N-(3-(4′-(trifluoromethoxy)-[1,1′-biphenyl]-4-yl)propyl)thieno[2,3-d]pyrimidin-4-amine], the IC50 rises from 58 nM to greater than 10000 nM.
